The source of these data is PubChem BioAssay (NCI).

Some test systems named below: SK-MEL-2 melanoma; MDA-MB-231 breast; HOP-92 NSCLC; SR leukemia; OVCAR-4 ovarian; MCF7 breast; NCI-H226 lung; SN12C renal; SNB-19 CNS; HCT-15 colon.
Holding throughout (test): NCI tumour cell line growth inhibition, 48 h

SMILES strings stand for the structures.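 Growth conditions: 96-well plates. Treatment: test compound, 48 hours, 5 concentrations. Analysis: linear interpolation between bracketing concentrations; unreached endpoints set to highest concentration. GI50: concentration for 50% inhibition of growth. The concentration for full growth arrest is given as TGI.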

With `C[C@@H]1CC[C@H]2C(C(O)CCCCC(O)C3=C(C(F)(F)F)O[C@@H]4O[C@@]5(C)CC[C@H]6[C@H](C)CC[C@@H]3[C@@]46OO5)=C(C(F)(F)F)O[C@@H]3O[C@@]4(C)CC[C@@H]1[C@]32OO4` (stereo not given in full), the GI50 in the assay on SK-MEL-2 melanoma was more than 100 µM; in the assay on MDA-MB-231 breast it was 16.2 µM; in the assay on HOP-92 NSCLC, 11.2 µM; in the assay on SR leukemia, 1.91 µM; in the assay with OVCAR-4 ovarian it was 28.5 µM; in the assay with MCF7 breast, 5.01 µM. The GI50 is 33.6 µM in the assay on NCI-H226 lung, 21 µM in the assay on SN12C renal, more than 100 µM in the assay on SNB-19 CNS and 9.79 µM with HCT-15 colon. Further, the TGI in the assay on SK-MEL-2 melanoma is more than 100 µM; with MDA-MB-231 breast it was more than 100 µM; in the assay with HOP-92 NSCLC, more than 100 µM; in the assay with SR leukemia it was 6.04 µM; in the assay with OVCAR-4 ovarian, more than 100 µM; in the assay with MCF7 breast it was more than 100 µM. Besides, the TGI in the assay with NCI-H226 lung, in the assay on SN12C renal, in the assay on SNB-19 CNS and with HCT-15 colon was more than 100 µM in each case.
In the case of `COC(=O)c1c(OC(C)=O)ccc2c1c1c(n2C)C(=O)c2ccccc2C1=O`, the TGI was 96.1 µM in the assay on SK-MEL-2 melanoma; more than 100 µM in the assay on MDA-MB-231 breast; 9.58 µM in the assay with HOP-92 NSCLC; more than 100 µM in the assay on SR leukemia; more than 100 µM in the assay with OVCAR-4 ovarian; more than 100 µM in the assay on MCF7 breast. For the same molecule, the TGI with NCI-H226 lung, in the assay with SN12C renal, with SNB-19 CNS and with HCT-15 colon was more than 100 µM each time.
On to `Nc1ncnc2c1nnn2C1CCC(CP(=O)(O)O)C1` (stereo not given), for which the TGI in the assay on SK-MEL-2 melanoma, with MDA-MB-231 breast, with HOP-92 NSCLC, in the assay with SR leukemia, with OVCAR-4 ovarian and in the assay on MCF7 breast was more than 100 µM throughout. In addition, the TGI in the assay with NCI-H226 lung, in the assay with SN12C renal, in the assay with SNB-19 CNS and with HCT-15 colon was more than 100 µM each time.
On to `COC(=O)c1c(O)ccc2c1c1c(n2Cc2cccc(C)c2)C(=O)c2ccccc2C1=O`, for which the TGI in the assay with SK-MEL-2 melanoma is 27.4 µM; with MDA-MB-231 breast it was 35.3 µM; in the assay on HOP-92 NSCLC, 19.8 µM; in the assay with SR leukemia it was 21 µM; in the assay on OVCAR-4 ovarian, 20.1 µM; in the assay on MCF7 breast it was 20.2 µM. Besides, the TGI in the assay on NCI-H226 lung was 38.8 µM; with SN12C renal, 22.2 µM; in the assay with SNB-19 CNS it was 27.9 µM; in the assay on HCT-15 colon, 24.2 µM.
`COc1c(O)cc(O)c2c(=O)cc(-c3ccccc3)oc12`: the TGI with SK-MEL-2 melanoma, with MDA-MB-231 breast, in the assay with HOP-92 NSCLC, with SR leukemia, with OVCAR-4 ovarian and with MCF7 breast was more than 100 µM in each case. Also, the TGI in the assay with NCI-H226 lung, in the assay on SN12C renal, with SNB-19 CNS and with HCT-15 colon was more than 100 µM each time.
On to `CSc1n[nH]c(N)c1C(=O)Nc1ccc(C)cc1`, for which the TGI in the assay on SK-MEL-2 melanoma was more than 100 µM; in the assay with MDA-MB-231 breast, more than 100 µM; with HOP-92 NSCLC it was 68.3 µM; in the assay with SR leukemia, more than 100 µM; in the assay on OVCAR-4 ovarian, more than 100 µM; in the assay on MCF7 breast, more than 100 µM. Further, the TGI with NCI-H226 lung, in the assay with SN12C renal, in the assay with SNB-19 CNS and in the assay with HCT-15 colon was more than 100 µM each time.
For `COc1ccc2nc3cc([N+](=O)[O-])ccc3c(Nc3ccc(S(=O)(=O)NC(C)=O)cc3)c2c1`, the TGI is more than 100 µM in the assay with SK-MEL-2 melanoma; more than 100 µM with MDA-MB-231 breast; more than 100 µM in the assay on HOP-92 NSCLC; 75.8 µM in the assay on SR leukemia; more than 100 µM in the assay with OVCAR-4 ovarian; more than 100 µM in the assay with MCF7 breast. The TGI in the assay with NCI-H226 lung, in the assay on SN12C renal, with SNB-19 CNS and with HCT-15 colon was more than 100 µM each time.
For the molecule `C#CCSC(C=C=C)P(=O)(OC(C)C)OC(C)C` (stereo not given), the TGI with SK-MEL-2 melanoma, with MDA-MB-231 breast, in the assay with HOP-92 NSCLC, with SR leukemia, in the assay with OVCAR-4 ovarian and in the assay on MCF7 breast was more than 100 µM in each case. Also, the TGI with NCI-H226 lung was more than 100 µM; with SN12C renal it was 88.3 µM; in the assay with SNB-19 CNS, more than 100 µM; in the assay with HCT-15 colon, more than 100 µM.
On to `O=C(OCCN=c1c2ccccc2ccc2ccccc12)c1ccc([N+](=O)[O-])cc1`, for which the TGI in the assay with SK-MEL-2 melanoma, in the assay on MDA-MB-231 breast, in the assay on HOP-92 NSCLC, in the assay with SR leukemia, in the assay with OVCAR-4 ovarian and with MCF7 breast was more than 100 µM each time. The TGI in the assay with NCI-H226 lung, in the assay on SN12C renal, in the assay on SNB-19 CNS and in the assay on HCT-15 colon was more than 100 µM each time.
On to `CC1(C)CC(C)(C)C1=NNC(N)=O`, for which the TGI with SK-MEL-2 melanoma, with MDA-MB-231 breast, in the assay with HOP-92 NSCLC, in the assay with SR leukemia, in the assay on OVCAR-4 ovarian and with MCF7 breast was more than 100 µM in each case. The TGI in the assay with NCI-H226 lung, in the assay with SN12C renal, with SNB-19 CNS and in the assay with HCT-15 colon was more than 100 µM each time.
With `CC(C)C(OC(=O)c1ccc(NCc2cc(O)ccc2O)cc1)C(C)C`, the TGI with SK-MEL-2 melanoma amounted to 6.68 µM; in the assay with MDA-MB-231 breast, 9.15 µM; with HOP-92 NSCLC, 1.36 µM; in the assay on SR leukemia it was 2.43 µM; with OVCAR-4 ovarian it was 4.33 µM; with MCF7 breast, 16.4 µM. Further, the TGI with NCI-H226 lung came to 5.47 µM; in the assay with SN12C renal, 11.9 µM; in the assay on SNB-19 CNS, 7.06 µM; in the assay with HCT-15 colon it was 1.77 µM.
`CCOP(=O)(OCC)C1CC(n2cc(C)c(=O)[nH]c2=O)OC1CO` (stereo not given): the TGI in the assay with SK-MEL-2 melanoma, in the assay on MDA-MB-231 breast, in the assay on HOP-92 NSCLC, in the assay on SR leukemia, in the assay on OVCAR-4 ovarian and with MCF7 breast was more than 100 µM each time. Also, the TGI in the assay on NCI-H226 lung, in the assay with SN12C renal, with SNB-19 CNS and in the assay on HCT-15 colon was more than 100 µM each time.
